# Test results as given in the OPERA property sets (Mansouri et al. 2018).
row,SMILES,logP
1,CC(C)=NN(c1ccccc1)P(=O)(N1CC1)N1CC1,0.57
2,CC(C)=NN(C)P(=O)(N1CC1)N1CC1,0.51
3,CN(N=Cc1ccc(Br)cc1)P(=O)(N1CC1)N1CC1,0.31
4,CN(N=Cc1ccc([N+](=O)[O-])cc1)P(=O)(N1CC1)N1CC1,0.51
5,O=[N+]([O-])c1ccc(C=NNP(=O)(N2CC2)N2CC2)cc1,0.45
6,O=P(NN=Cc1ccc(F)cc1)(N1CC1)N1CC1,0.45
7,COc1ccc(C=NN(c2ccccc2)P(=O)(N2CC2)N2CC2)cc1,0.57
8,O=P(N1CC1)(N1CC1)N(N=Cc1ccccc1)c1ccccc1,0.56
9,CC(C)=NNP(=O)(N1CC1)N1CC1,0.45
10,COc1ccc(C=NN(C)P(=O)(N2CC2)N2CC2)cc1,0.47
11,O=P(NN=Cc1ccccc1)(N1CC1)N1CC1,0.48
12,O=P(N1CC1)(N1CC1)N(N=Cc1ccc(Cl)cc1)c1ccccc1,0.35
13,CN(N=Cc1ccccc1)P(=O)(N1CC1)N1CC1,0.51
14,COc1ccc(C=NNP(=O)(N2CC2)N2CC2)cc1,0.42
15,O=[N+]([O-])c1ccc(N(N=Cc2ccccc2)P(=O)(N2CC2)N2CC2)cc1,0.57
16,O=P(N1CC1)(N1CC1)N(N=Cc1ccc(F)cc1)c1ccccc1,0.56
17,O=[N+]([O-])c1ccc(C=NN(c2ccccc2)P(=O)(N2CC2)N2CC2)cc1,0.57
18,O=P(NN=Cc1ccc(Cl)cc1)(N1CC1)N1CC1,0.13
19,CN(N=Cc1ccc(F)cc1)P(=O)(N1CC1)N1CC1,0.48
